# Measurements published in patent US20090143438A1, “Novel Pyridine Derivative Having Anti-Helicobacter Pylori Activity” (Arigen Pharmaceuticals, Inc., priority 2006, published 2009).
# How the values were obtained:
# H. pylori, ATCC 43504 = test: Antibacterial power test, Columbia agar, MIC; assay type: cell-based, Helicobacter pylori; conditions: Helicobacter pylori, ATCC43504, 72 h, 37° C., pH 7.0, 3 days, read on 4th day, read-out: MIC, in vitro anti-Helicobacter pylori activity
# Procedure: An in vitro test was performed in a Columbia agar medium using a standard strain of H. pylori, ATCC 43504. […] Each of the test objects was dissolved in a 1% DMSO solution. Furthermore, as antibiotic control drugs, ampicillin from the penicillin family (control drug 1), gentamycin from the aminoglycoside family (control drug 2), tetracycline from the tetracycline family (control drug 3), and ofloxacin from the new quinolone family (control drug 4) were used.
# H. pylori NCTC 11916 = test: In vitro MIC test in Columbia agar, standard strain; assay type: cell-based, Helicobacter pylori; conditions: Helicobacter pylori, NCTC11916, 72 h; standard strain NCTC 11916; 37° C., pH 7.0, 3 days
# Procedure: (§1) An in vitro test was performed in a Columbia agar medium using standard strains of H. pylori, NCTC 11637 and 11916, clinical isolates PT#1045482, PT#1045483 and PT#1045484, and ofloxacin- and roxithromycin-resistant, clinical isolates TY2, 4 and 5. Each of the test objects was dissolved in a 1% DMSO solution. Furthermore, as antibiotic control drugs, roxithromycin from the macrolide family and ofloxacin from the new quinolone family were used. The strains were cultured at 37° C. and pH 7.0 for 3 days, and on the 4th day, the minimum inhibitory concentrations (MIC, μg/ml) were determined.
# H. pylori NCTC 11637 = test: as above; assay type: cell-based, Helicobacter pylori; conditions: Helicobacter pylori, NCTC11637, 72 h; standard strain NCTC 11637; 37° C., pH 7.0, 3 days
# Procedure: as §1
# [1] = test system: H. pylori ofloxacin- and roxithromycin-resistant clinical isolate TY4; test: In vitro MIC test in Columbia agar, resistant clinical isolate; assay type: cell-based; conditions: Helicobacter pylori, 72 h; resistant strain TY4; 37° C., pH 7.0, 3 days
# Procedure: as §1
# [2] = test system: H. pylori ofloxacin- and roxithromycin-resistant clinical isolate TY2; test: as above; assay type: cell-based; conditions: Helicobacter pylori, 72 h; resistant strain TY2; 37° C., pH 7.0, 3 days
# Procedure: as §1
# [3] = test system: H. pylori ofloxacin- and roxithromycin-resistant clinical isolate TY5; test: as above; assay type: cell-based; conditions: Helicobacter pylori, 72 h; resistant strain TY5; 37° C., pH 7.0, 3 days
# Procedure: as §1
# [4] = test system: H. pylori clinical isolate PT#1045483; test: In vitro MIC test in Columbia agar, clinical isolate; assay type: cell-based; conditions: Helicobacter pylori, 72 h, 37° C., pH 7.0, 3 days
# Procedure: as §1
# [5] = test system: H. pylori clinical isolate PT#1045484; test: as above; assay type: cell-based; conditions: Helicobacter pylori, 72 h, 37° C., pH 7.0, 3 days
# Procedure: as §1
# [6] = test system: H. pylori clinical isolate PT#1045482; test: as above; assay type: cell-based; conditions: Helicobacter pylori, 72 h, 37° C., pH 7.0, 3 days
# Procedure: as §1
# [7] = test system: Escherichia coli (ATCC 25922); test: In vitro antibacterial test against various bacteria, MIC; assay type: cell-based; conditions: ATCC25922, 37° C., 20 to 48 hours, read-out: MIC
# Procedure: (§2) An in vitro antibacterial test for the compounds of Examples 1 to 6 against various bacteria was performed. As gram-negative bacteria, Escherichia coli (ATCC 10536, ATCC 25922), Klebsiella pneumonia (ATCC 10031), Proteus vulgaris (ATCC 13315), Pseudomonas aeruginosa (ATCC 9027), Salmonella typhimurium (ATCC 13311), and as gram-positive bacteria, Staphylococcus aureus, MRSA (ATCC 33591), Staphylococcus epidermidis (ATCC 12228), Streptococcus pneumonia (ATCC 6301), Mycobacterium ranae (ATCC 110) and Enterococcus faecalis (VRE, ATCC 51575) were used. The various bacteria were cultured at 37° C. for 20 to 48 hours by conventional methods, and the minimum inhibitory concentrations (MIC, μg/ml) were determined. Each of the test objects were dissolved in a 1% DMSO solution. Furthermore, as an antibiotic control drug, gentamycin (GEM) from the aminoglycoside family was used.
# [8] = test system: Enterococcus faecalis (VRE, ATCC 51575); test: as above; assay type: cell-based; conditions: 37° C., 20 to 48 hours
# Procedure: as §2
# [9] = test system: Staphylococcus epidermidis (ATCC 12228); test: as above; assay type: cell-based; conditions: ATCC12228, 37° C., 20 to 48 hours, read-out: MIC
# Procedure: as §2
# [10] = test system: Mycobacterium ranae (ATCC 110); test: as above; assay type: cell-based; conditions: ATCC110, 37° C., 20 to 48 hours, read-out: MIC
# Procedure: as §2
# [11] = test system: Staphylococcus aureus, MRSA (ATCC 33591); test: as above; assay type: cell-based; conditions: 37° C., 20 to 48 hours, read-out: MIC
# Procedure: as §2
# [12] = test system: Escherichia coli (ATCC 10536); test: as above; assay type: cell-based; conditions: ATCC10536, 37° C., 20 to 48 hours, read-out: MIC
# Procedure: as §2
# [13] = test system: Proteus vulgaris (ATCC 13315); test: as above; assay type: cell-based; conditions: ATCC13315, 37° C., 20 to 48 hours, read-out: MIC
# Procedure: as §2
# [14] = test system: Pseudomonas aeruginosa (ATCC 9027); test: as above; assay type: cell-based; conditions: ATCC9027, 37° C., 20 to 48 hours, read-out: MIC
# Procedure: as §2
# [15] = test system: Salmonella typhimurium (ATCC 13311); test: as above; assay type: cell-based; conditions: Salmonella enterica, 37° C., 20 to 48 hours, read-out: MIC
# Procedure: as §2
# [16] = test system: Klebsiella pneumonia (ATCC 10031); test: as above; assay type: cell-based; conditions: Klebsiella pneumoniae, ATCC10031, 37° C., 20 to 48 hours, read-out: MIC
# Procedure: as §2
# [17] = test system: Streptococcus pneumonia (ATCC 6301); test: as above; assay type: cell-based; conditions: Streptococcus pneumoniae, ATCC6301, 37° C., 20 to 48 hours
# Procedure: as §2
# [18] = test system: Helicobacter pylori NCTC11637; conditions: standard strain NCTC11637; data from Table 6 of JP-A No. 7-69888; cited from earlier work
# [19] = test system: Helicobacter pylori NCTC11916; conditions: standard strain NCTC11916; data from Table 6 of JP-A No. 7-69888; cited from earlier work
SMILES,"MIC (H. pylori, ATCC 43504)",MIC (H. pylori NCTC 11916),MIC (H. pylori NCTC 11637),MIC [1],MIC [2],MIC [3],MIC [4],MIC [5],MIC [6],MIC [7],MIC [8],MIC [9],MIC [10],MIC [11],MIC [12],MIC [13],MIC [14],MIC [15],MIC [16],MIC [17],further results
"CN(C)[C@@H]1C(O)=C(C(N)=O)C(=O)[C@@]2(O)C(O)=C3C(=O)c4c(O)cccc4[C@@](C)(O)[C@H]3C[C@@H]12 [Control Drug 3 (Tetracycline), tetracycline, reference compound]",0.3 µg/mL,–,–,–,–,–,–,–,–,–,–,–,–,–,–,–,–,–,–,–,–
"CC1COc2c(N3CCN(C)CC3)c(F)cc3c(=O)c(C(=O)O)cn1c23 (stereo not shown) [Control Drug 4 (Ofloxacin), ofloxacin, reference compound]",1 µg/mL,0.8 µg/mL,0.8 µg/mL,25 µg/mL,2.5 µg/mL,2.5 µg/mL,0.8 µg/mL,0.4 µg/mL,0.8 µg/mL,–,–,–,–,–,–,–,–,–,–,–,–
"CC[C@H]1OC(=O)[C@H](C)[C@@H](O[C@H]2C[C@@](C)(OC)[C@@H](O)[C@H](C)O2)[C@H](C)[C@@H](O[C@@H]2O[C@H](C)C[C@H](N(C)C)[C@H]2O)[C@](C)(O)C[C@@H](C)/C(=N\OCOCCOC)[C@H](C)[C@@H](O)[C@]1(C)O [RXM, roxithromycin, reference compound]",–,0.1 µg/mL,0.2 µg/mL,> 100 µg/mL,> 100 µg/mL,3.5 µg/mL,0.2 µg/mL,0.2 µg/mL,0.4 µg/mL,–,–,–,–,–,–,–,–,–,–,–,MIC [18]: 0.2 µg/mL; MIC [19]: 0.1 µg/mL

# Continued, in another order:
"MIC (H. pylori, ATCC 43504)",MIC (H. pylori NCTC 11916),MIC (H. pylori NCTC 11637),MIC [1],MIC [2],MIC [3],MIC [4],MIC [5],MIC [6],MIC [7],MIC [8],MIC [9],MIC [10],MIC [11],MIC [12],MIC [13],MIC [14],MIC [15],MIC [16],MIC [17],SMILES,further results
3 µg/mL,–,–,–,–,–,–,–,–,–,–,–,–,–,–,–,–,–,–,–,"Cc1c(OCCCO)ccnc1CSc1nc2ccccc2[nH]1 [Comparative Compound 2, 2-[{4-(3-hydroxypropoxy)-3-methylpyridin-2-yl}methylthio]-1H-benzimidazole, reference compound]",–
0.1 µg/mL,–,–,–,–,–,–,–,–,–,–,–,–,–,–,–,–,–,–,–,"CC1(C)S[C@@H]2[C@H](NC(=O)[C@H](N)c3ccccc3)C(=O)N2[C@H]1C(=O)O [Control Drug 1 (Ampicillin), ampicillin, reference compound]",–
0.3 µg/mL,0.3 µg/mL,0.3 µg/mL,0.3 µg/mL,0.2 µg/mL,0.3 µg/mL,0.3 µg/mL,0.3 µg/mL,0.2 µg/mL,> 100 µg/mL,> 100 µg/mL,> 100 µg/mL,> 100 µg/mL,> 100 µg/mL,> 100 µg/mL,> 100 µg/mL,> 100 µg/mL,> 100 µg/mL,> 100 µg/mL,> 100 µg/mL,"Cc1c(OCCCCCO)ccnc1CSc1nc2ccccc2[nH]1 [Example 1, 2-[{4-(5-hydroxypentyloxy)-3-methylpyridin-2-yl}methylthio]-1H-benzimidazole]",–
0.1 µg/mL,0.1 µg/mL,0.1 µg/mL,0.1 µg/mL,0.3 µg/mL,0.1 µg/mL,0.1 µg/mL,0.3 µg/mL,0.1 µg/mL,> 100 µg/mL,> 100 µg/mL,> 100 µg/mL,> 100 µg/mL,> 100 µg/mL,> 100 µg/mL,> 100 µg/mL,> 100 µg/mL,> 100 µg/mL,> 100 µg/mL,> 100 µg/mL,"Cc1c(OCCCCCCO)ccnc1CSc1nc2ccccc2[nH]1 [Example 2, 2-[{4-(6-hydroxyhexyloxy)-3-methylpyridin-2-yl}methylthio]-1H-benzimidazole]",–
0.1 µg/mL,0.1 µg/mL,0.1 µg/mL,0.1 µg/mL,0.1 µg/mL,0.1 µg/mL,0.1 µg/mL,0.1 µg/mL,0.1 µg/mL,> 100 µg/mL,> 100 µg/mL,> 100 µg/mL,> 100 µg/mL,> 100 µg/mL,> 100 µg/mL,> 100 µg/mL,> 100 µg/mL,> 100 µg/mL,> 100 µg/mL,> 100 µg/mL,"Cc1c(OCCCCCCCO)ccnc1CSc1nc2ccccc2[nH]1 [Example 3, 2-[{4-(7-hydroxyheptyloxy)-3-methylpyridin-2-yl}methylthio]-1H-benzimidazole]",–
